According to patent publication US11913030B2, “Method of preparing mimicking angiogenic co-spheroids and application thereof” (NATIONAL TAIWAN UNIVERSITY, priority 2018, dated 2024):

Legend:
NSC/EC co-spheroids = test: Morphology and relative size of co-spheroids encapsulated in hydrogels; assay type: cell-based; settings: FGF2 1 μg/mL
Experimental: To observe the morphological alteration of NSC/EC co-spheroids embedded in the hydrogels, the cells were labeled with fluorescent dyes before seeding on CS-HA substrates. After gelation, the culture medium was added and changed every 2 days. The morphologies of cell spheroids formed on CS/CS-HA substrates and encapsulated in the various hydrogels were observed by a fluorescence microscope (Leica, DMIRB), and the relative sizes of cell spheroids were determined by ImageJ software (National Institutes of Health, USA).
To support the long-term growth of NSC/EC co-spheroids, the co-spheroids derived from the CS-HA substrates were respectively embedded in the CS-based and gelatin-based hydrogels. […] On the other hand, the cell growth rates in the spheroids were evaluated by the spheroid size. Cells in EC mono-spheroids grew faster than those in NSC mono-spheroids, and the growth rate in NSC/EC co-spheroids was the slowest in both hydrogels, though the difference among each group was not statistically significant.
In some embodiments, the fibroblast growth factor 2 (FGF2) protein was used to promote the growth of co-spheroids in hydrogels. In order to evenly add FGF2 to hydrogels, FGF2 (PeproTech, USA) was added to the hydrogel solution and mixed before the gelation. The final concentration of the FGF2 protein in hydrogels was 1 μg/mL. […]

[1] = test system: ECs in NSC/EC co-spheroids; test: qRT-PCR of EC activity and angiogenic markers in co-spheroids encapsulated in gelatin-based hydrogel; assay type: cell-based; settings: FGF2 1 μg/mL in gelatin-based hydrogel, 3 days
Experimental: Total RNA from the adherent cells or cell spheroids formed on CS-HA substrates and embedded in the hydrogels was extracted by Trizol reagent (Invitrogen) as the manufacturer's instructions. One microgram of total RNA was further subjected to the cDNA synthesis. cDNA pool was generated by RevertAid First Strand cDNA Synthesis Kit (MBI Fermentas, Canada) using the standard protocol. qRT-PCR was performed by StepOnePlus thermos cycler (Applied Biosystems) using the DyNAmo Flash SYBR Green qPCR Kit (Finnzymes Oy, Finland). […]
To investigate whether EC activity in NSC/EC co-spheroids was promoted after encapsulation in gelatin-based hydrogel, the co-spheroids that were cultured on CS-HA substrates for 2 days were collected, and then encapsulated by gelatin-based hydrogel. After encapsulation for 3 days, the expression of several markers representative of mitogenic and angiogenic activities of ECs was determined.
On the other hand, a relative long-term culture of co-spheroids in the gelatin-based hydrogel containing FGF2 for 12 days was also performed, and the activity of ECs was analyzed by gene expression.
To further verify the angiogenic potential of ECs in the co-spheroids, more angiogenic markers for ECs including angiopoietin-1, angiopoietin-2, and tyrosine kinase 1 (Flt-1) were analyzed.

## fibroblast growth factor 2 [FGF2]
NSC/EC co-spheroids; in CS-based hydrogel
  growth rates of the co-spheroids after FGF2 induction: not promoted
NSC/EC co-spheroids; in gelatin-based hydrogel, from 6 days after encapsulation
  growth of co-spheroids after introduction of FGF2: lightly enhanced
[1]
  expression of KDR, VEGF, ITGb1, VE-cadherin upon addition of FGF2: did not seem to be apparently affected
